# Source: ChEMBL document CHEMBL1201862, “PubChem BioAssay data set” (2004)
#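 Cultured in 96-well plates, cells were exposed to test compound for 48 hours across five concentrations. At the GI50, growth is halved.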 Calls of active or inactive are those of the source. Rule as the data show it: active = GI50 up to about 1.1 µM and inactive = higher.
# Columns and labels:
# Assay in all cases: growth of human tumour cells (NCI), 48 h
# [1] = system: SF-268
# [2] = system: SNB-75
# [3] = system: SF-295
# [4] = system: Malme-3M
# [5] = system: MOLT-4
# [6] = system: DMS-114
# [7] = system: COLO 205
# [8] = system: M14
# [9] = system: HL-60
# [10] = system: TK-10
# [11] = system: ACHN
# [12] = system: NCI-H23
# [13] = system: EKVX
# [14] = system: UACC-62
# [15] = system: SK-MEL-28
# [16] = system: NCI-H460
# [17] = system: HOP-62
# [18] = system: OVCAR-8
# [19] = system: KM-20L2
# [20] = system: OVCAR-5
# [21] = system: IGROV-1
# [22] = system: LOX IMVI
# [23] = system: RPMI-8226
# [24] = system: XF498
# [25] = system: HT-29
# [26] = system: SK-OV-3
# [27] = system: SK-MEL-5
# [28] = system: SNB-19
# [29] = system: DMS-273
# [30] = system: 786-0
# [31] = system: SR
# [32] = system: CCRF-CEM
# [33] = system: SF-539
# [34] = system: A498
# [35] = system: OVCAR-3
# [36] = system: CAKI-1
# [37] = system: U-251
# [38] = system: HOP-92
# [39] = system: UO-31
# [40] = system: SNB-78
# [41] = system: RXF 393
# [42] = system: HCT-116
# [43] = system: UACC-257
# [44] = system: A549
# [45] = system: SW-620
# [46] = system: KM12
# [47] = system: NCI-H226
# [48] = system: M19-MEL
# [49] = system: K562
# [50] = system: SN12C
# [51] = system: HCT-15
# [52] = system: LXFL 529
# [53] = system: OVCAR-4
# [54] = system: HCC 2998
# [55] = system: SK-MEL-2
# [56] = system: NCI-H522
# [57] = system: HOP-18
# [58] = system: DLD-1
compound,measurement,setting,value
COC(=O)C1=Cc2cc(OC)c(OC)cc2[C@H](c2ccc(OC)c(OC)c2)C1C(=O)OC (stereo not given in full),GI50,[1],> 100 µM (inactive)
same,GI50,[2],> 100 µM (inactive)
same,GI50,[3],> 100 µM (inactive)
same,GI50,[4],> 100 µM (inactive)
same,GI50,[5],> 100 µM (inactive)
same,GI50,[6],> 100 µM (inactive)
same,GI50,[7],> 100 µM (inactive)
same,GI50,[8],> 100 µM (inactive)
same,GI50,[9],> 100 µM (inactive)
same,GI50,[10],> 100 µM (inactive)
same,GI50,[11],> 100 µM (inactive)
same,GI50,[12],> 100 µM (inactive)
same,GI50,[13],> 100 µM (inactive)
same,GI50,[14],98.9 µM (inactive)
same,GI50,[15],> 100 µM (inactive)
same,GI50,[16],> 100 µM (inactive)
same,GI50,[17],> 100 µM (inactive)
same,GI50,[18],> 100 µM (inactive)
same,GI50,[19],> 100 µM (inactive)
same,GI50,[20],> 100 µM (inactive)
same,GI50,[21],> 100 µM (inactive)
same,GI50,[22],> 100 µM (inactive)
same,GI50,[23],> 100 µM (inactive)
same,GI50,[24],> 100 µM (inactive)
same,GI50,[25],75.9 µM (inactive)
same,GI50,[26],> 100 µM (inactive)
same,GI50,[27],> 100 µM (inactive)
same,GI50,[28],> 100 µM (inactive)
same,GI50,[29],> 100 µM (inactive)
same,GI50,[30],> 100 µM (inactive)
same,GI50,[31],> 100 µM (inactive)
same,GI50,[32],> 100 µM (inactive)
same,GI50,[33],69.8 µM (inactive)
same,GI50,[34],> 100 µM (inactive)
same,GI50,[35],> 100 µM (inactive)
same,GI50,[36],> 100 µM (inactive)
same,GI50,[37],> 100 µM (inactive)
same,GI50,[38],45.8 µM (inactive)
same,GI50,[39],> 100 µM (inactive)
same,GI50,[40],> 100 µM (inactive)
same,GI50,[41],> 100 µM (inactive)
same,GI50,[42],> 100 µM (inactive)
same,GI50,[43],> 100 µM (inactive)
same,GI50,[44],> 100 µM (inactive)
same,GI50,[45],> 100 µM (inactive)
same,GI50,[46],> 100 µM (inactive)
same,GI50,[47],> 100 µM (inactive)
same,GI50,[48],> 100 µM (inactive)
same,GI50,[49],> 100 µM (inactive)
same,GI50,[50],> 100 µM (inactive)
same,GI50,[51],76 µM
same,GI50,[52],> 100 µM (inactive)
same,GI50,[53],> 100 µM (inactive)
same,GI50,[54],> 100 µM (inactive)
O=C(c1ccco1)N(C(=S)N1CCN(c2ccccc2)CC1)c1ccccc1,GI50,[1],> 100 µM (inactive)
same,GI50,[2],> 100 µM (inactive)
same,GI50,[55],> 100 µM (inactive)
same,GI50,[3],> 100 µM (inactive)
same,GI50,[4],> 100 µM (inactive)
same,GI50,[5],> 100 µM (inactive)
same,GI50,[6],> 100 µM (inactive)
same,GI50,[7],> 100 µM (inactive)
same,GI50,[8],> 100 µM (inactive)
same,GI50,[9],> 100 µM (inactive)
same,GI50,[10],> 100 µM (inactive)
same,GI50,[11],> 100 µM (inactive)
same,GI50,[12],> 100 µM (inactive)
same,GI50,[14],> 100 µM (inactive)
same,GI50,[15],> 100 µM (inactive)
same,GI50,[16],> 100 µM (inactive)
same,GI50,[17],> 100 µM (inactive)
same,GI50,[18],> 100 µM (inactive)
same,GI50,[19],> 100 µM (inactive)
same,GI50,[20],> 100 µM (inactive)
same,GI50,[21],> 100 µM (inactive)
same,GI50,[22],> 100 µM (inactive)
same,GI50,[23],> 100 µM (inactive)
same,GI50,[25],> 100 µM (inactive)
same,GI50,[26],> 100 µM (inactive)
same,GI50,[27],> 100 µM (inactive)
same,GI50,[28],> 100 µM (inactive)
same,GI50,[29],> 100 µM (inactive)
same,GI50,[30],> 100 µM (inactive)
same,GI50,[31],72.4 µM (inactive)
same,GI50,[32],> 100 µM (inactive)
same,GI50,[33],> 100 µM (inactive)
same,GI50,[35],> 100 µM (inactive)
same,GI50,[36],> 100 µM (inactive)
same,GI50,[56],> 100 µM (inactive)
same,GI50,[37],> 100 µM (inactive)
same,GI50,[38],> 100 µM (inactive)
same,GI50,[39],66.8 µM (inactive)
same,GI50,[40],> 100 µM (inactive)
same,GI50,[41],> 100 µM (inactive)
same,GI50,[57],> 100 µM (inactive)
same,GI50,[42],> 100 µM (inactive)
same,GI50,[43],> 100 µM (inactive)
same,GI50,[44],> 100 µM (inactive)
same,GI50,[45],> 100 µM (inactive)
same,GI50,[46],> 100 µM (inactive)
same,GI50,[47],25.6 µM (inactive)
same,GI50,[58],> 100 µM (inactive)
same,GI50,[48],> 100 µM (inactive)
same,GI50,[49],> 100 µM (inactive)
same,GI50,[50],> 100 µM (inactive)
same,GI50,[51],> 100 µM
same,GI50,[52],> 100 µM (inactive)
same,GI50,[53],> 100 µM (inactive)
O=c1oc(-c2ccccc2)cn1-c1ccccc1,GI50,[2],> 100 µM (inactive)
same,GI50,[5],> 100 µM (inactive)
same,GI50,[8],> 100 µM (inactive)
same,GI50,[9],> 100 µM (inactive)
same,GI50,[12],> 100 µM (inactive)
same,GI50,[15],> 100 µM (inactive)
same,GI50,[16],> 100 µM (inactive)
same,GI50,[17],> 100 µM (inactive)
same,GI50,[19],94.8 µM (inactive)
same,GI50,[22],94.8 µM (inactive)
same,GI50,[23],> 100 µM (inactive)
same,GI50,[24],> 100 µM (inactive)
same,GI50,[28],> 100 µM (inactive)
same,GI50,[29],> 100 µM (inactive)
same,GI50,[30],> 100 µM (inactive)
same,GI50,[32],> 100 µM (inactive)
same,GI50,[33],88.7 µM (inactive)
same,GI50,[56],70.8 µM (inactive)
same,GI50,[37],> 100 µM (inactive)
same,GI50,[40],> 100 µM (inactive)
same,GI50,[41],> 100 µM (inactive)
same,GI50,[57],95.3 µM (inactive)
same,GI50,[42],> 100 µM (inactive)
same,GI50,[47],> 100 µM (inactive)
same,GI50,[58],> 100 µM (inactive)
same,GI50,[49],> 100 µM (inactive)
same,GI50,[50],> 100 µM (inactive)
same,GI50,[52],> 100 µM (inactive)
same,GI50,[53],> 10 µM (inactive)
same,GI50,[54],> 100 µM (inactive)
CN(C(=O)C12C3C4C1C1C2C3C41C(N)=O)C(C)(C)C (stereo not given),GI50,[1],> 100 µM (inactive)
same,GI50,[2],> 100 µM (inactive)
same,GI50,[3],> 100 µM (inactive)
same,GI50,[4],> 100 µM (inactive)
same,GI50,[5],> 100 µM (inactive)
same,GI50,[6],> 100 µM (inactive)
same,GI50,[7],> 100 µM (inactive)
same,GI50,[8],> 100 µM (inactive)
same,GI50,[9],> 100 µM (inactive)
same,GI50,[10],> 100 µM (inactive)
same,GI50,[11],> 100 µM (inactive)
same,GI50,[12],> 100 µM (inactive)
same,GI50,[13],> 100 µM (inactive)
same,GI50,[14],> 100 µM (inactive)
same,GI50,[15],> 100 µM (inactive)
same,GI50,[16],> 100 µM (inactive)
same,GI50,[18],> 100 µM (inactive)
same,GI50,[20],> 100 µM (inactive)
same,GI50,[21],> 100 µM (inactive)
same,GI50,[24],> 100 µM (inactive)
same,GI50,[25],> 100 µM (inactive)
same,GI50,[26],> 100 µM (inactive)
same,GI50,[27],> 100 µM (inactive)
same,GI50,[28],> 100 µM (inactive)
same,GI50,[29],> 100 µM (inactive)
same,GI50,[30],> 100 µM (inactive)
same,GI50,[31],> 100 µM (inactive)
same,GI50,[32],> 100 µM (inactive)
same,GI50,[33],> 100 µM (inactive)
same,GI50,[34],> 100 µM (inactive)
same,GI50,[35],> 100 µM (inactive)
same,GI50,[36],> 100 µM (inactive)
same,GI50,[56],> 100 µM (inactive)
same,GI50,[38],> 100 µM (inactive)
same,GI50,[39],> 100 µM (inactive)
same,GI50,[40],> 100 µM (inactive)
same,GI50,[42],> 100 µM (inactive)
same,GI50,[44],> 100 µM (inactive)
same,GI50,[45],> 100 µM (inactive)
same,GI50,[46],> 100 µM (inactive)
same,GI50,[47],> 100 µM (inactive)
same,GI50,[48],> 100 µM (inactive)
same,GI50,[49],> 100 µM (inactive)
same,GI50,[50],> 100 µM (inactive)
same,GI50,[52],> 100 µM (inactive)
same,GI50,[53],> 100 µM (inactive)
same,GI50,[54],> 100 µM (inactive)
